O=c1c(-c2ccc(O)cc2)coc2cc(O)cc(O)c12
solubility (mole fraction)
Conditions | 288.2 K | 293.2 K | 298.2 K | 303.2 K | 308.2 K | 313.2 K | 318.2 K | 323.2 K | 328.2 K
in acetone | 0.00477 | 0.00526 | 0.00607 | 0.007 | 0.00754 | 0.00805 | 0.00856 | 0.00879 | 0.0089
in chloroform | 2.41e-06 | 2.82e-06 | 3.22e-06 | 3.6e-06 | 3.99e-06 | 4.36e-06 | 4.51e-06 | 4.7e-06 | 4.74e-06
in ethyl acetate | 0.00183 | 0.0022 | 0.00241 | 0.00273 | 0.00335 | 0.00367 | 0.00413 | 0.00471 | 0.00539
in methanol | 0.000935 | 0.00127 | 0.00145 | 0.00163 | 0.00192 | 0.00212 | 0.00266 | 0.00323 | 0.00372
in n-hexane | 6.96e-06 | 8.12e-06 | 9e-06 | 1.01e-05 | 1.09e-05 | 1.14e-05 | 1.24e-05 | 1.3e-05 | 1.41e-05
in water | 4.72e-08 | 6.95e-08 | 8.46e-08 | 1.05e-07 | 1.25e-07 | 1.67e-07 | 1.99e-07 | 2.7e-07 | 3.68e-07
